# Assay results taken from patent US12077503B2, “Substituted cyclic amides and their use as herbicides” (FMC CORPORATION, priority 2015, dated 2024).
# Key:
# Type in all cases: in vivo
# [1] = tested on: barnyardgrass (Echinochloa crus-galli); assay: Test B flooded paddy test; details: Flood, 250 g ai/ha
# Method in brief: (§1)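 Compound goes directly into floodwater once pots are flooded 3 cm above soil, targeting plants at two leaves; the water depth is then held for the test duration. Plants sit 13–15 d in a greenhouse and are rated visually, 100 denoting complete control.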
# [2] = tested on: ducksalad (Heteranthera limosa); assay: Test B flooded paddy test; details: Flood, 250 g ai/ha
# Method in brief: as §1
# rice (Oryra sativa) = assay: Test B flooded paddy test; details: Flood, 250 g ai/ha
# Method in brief: as §1
# [3] = tested on: sedge, umbrella (small-flower umbrella sedge, Cyperus difformis); assay: Test B flooded paddy test; details: Flood, 250 g ai/ha
# Method in brief: as §1
# [4] = tested on: giant foxtail (Setaria faberii); assay: Test A preemergence
# Method in brief: (§2)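 Visual injury, scored on a 0–100 scale relative to untreated controls, was recorded about 10 d after application. Treatments were a preemergence soil spray over planted seeds or a postemergence spray on plants at the one- to two-leaf stage, 2 to 10 cm tall, all in loam soil–sand blend in the greenhouse.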
# [5] = tested on: barnyardgrass (Echinochloa crus-galli); assay: Test A preemergence
# Method in brief: as §2
# [6] = tested on: ryegrass, Italian (Italian ryegrass, Lolium multiflorum); assay: Test A preemergence
# Method in brief: as §2
# [7] = tested on: pigweed (Amaranthus retroflexus); assay: Test A preemergence
# Kochia (Kochia scoparia) [8] = assay: Test A preemergence
# Method in brief: as §2
# [9] = tested on: ragweed (common ragweed, Ambrosia elatior); assay: Test A preemergence
# Method in brief: as §2
# [10] = tested on: giant foxtail (Setaria faberii); assay: Test A postemergence; details: for Plant response rating, Foxtail, Giant: postemergence, 0 to 100 scale (0 no effect, 100 complete control)
# Method in brief: as §2
# [11] = tested on: Galium (catchweed bedstraw, Galium aparine); assay: Test A postemergence; details: for Plant response rating, Galium: postemergence, 0 to 100 scale (0 no effect, 100 complete control)
# Method in brief: as §2
# [12] = tested on: barnyardgrass (Echinochloa crus-galli); assay: Test A postemergence; details: for Plant response rating, Barnyardgrass: postemergence, 0 to 100 scale (0 no effect, 100 complete control)
# Method in brief: as §2
# [13] = tested on: ryegrass, Italian (Italian ryegrass, Lolium multiflorum); assay: Test A postemergence; details: for Plant response rating, Ryegrass, Italian: postemergence, 0 to 100 scale (0 no effect, 100 complete control)
# Method in brief: as §2
# [14] = tested on: blackgrass (Alopecurus myosuroides); assay: Test A postemergence; details: for Plant response rating, Blackgrass: postemergence, 0 to 100 scale (0 no effect, 100 complete control)
# Method in brief: as §2
# [15] = tested on: pigweed (Amaranthus retroflexus); assay: Test A postemergence; details: for Plant response rating, Pigweed: postemergence, 0 to 100 scale (0 no effect, 100 complete control)
# Method in brief: as §2
# [16] = tested on: wheat (Triticum aestivum); assay: Test A postemergence; details: for Plant response rating, Wheat: postemergence, 0 to 100 scale (0 no effect, 100 complete control)
# Method in brief: as §2
# Kochia (Kochia scoparia) [17] = assay: Test A postemergence; details: for Plant response rating, Kochia: postemergence, 0 to 100 scale (0 no effect, 100 complete control)
# Method in brief: as §2
# corn (Zea mays) = assay: Test A postemergence; details: for Plant response rating, Corn: postemergence, 0 to 100 scale (0 no effect, 100 complete control)
# Method in brief: as §2
# [18] = tested on: ragweed (common ragweed, Ambrosia elatior); assay: Test A postemergence; details: for Plant response rating, Ragweed: postemergence, 0 to 100 scale (0 no effect, 100 complete control)
# Method in brief: as §2
# [19] = 0 to 100 scale where 0 is no effect and 100 is complete control, 13 to 15 d
# [20] = 125 g ai/ha, Preemergence, visual injury after approximately 10 d, 0 to 100 scale where 0 is no effect and 100 is complete control
# [21] = 500 g ai/ha, preemergence, 0 to 100 scale, 0 = no effect, 100 = complete control
# [22] = 125 g ai/ha, visual rating after approx. 10 d
# [23] = 500 g ai/ha, visual injury, approx. 10 d
smiles,measurement,setting,value
Cc1ccc(C2CN(C)C(=O)C2C(=O)Nc2ccccc2C(F)(F)F)cc1 (centres unmarked) [Compound 665],"Plant response rating, Barnyardgrass",[1]; [19],70
same,"Plant response rating, Ducksalad",[2]; [19],90
same,"Plant response rating, Rice",rice (Oryra sativa); [19],25
same,"Plant response rating, Sedge, Umbrella",[3]; [19],0
same,"Plant response rating, Foxtail, Giant",[4]; [20],100
same,"Plant response rating, Foxtail, Giant",[4]; [21],100
same,"Plant response rating, Barnyardgrass",[5]; [20],90
same,"Plant response rating, Barnyardgrass",[5]; [21],90
same,"Plant response rating, Ryegrass, Italian",[6]; [20],20
same,"Plant response rating, Ryegrass, Italian",[6]; [21],50
same,"Plant response rating, Pigweed",[7]; [20],30
same,"Plant response rating, Pigweed",[7]; [21],30
same,"Plant response rating, Kochia",Kochia (Kochia scoparia) [8]; [20],60
same,"Plant response rating, Kochia",Kochia (Kochia scoparia) [8]; [21],70
same,"Plant response rating, Ragweed",[9]; [20],20
same,"Plant response rating, Ragweed",[9]; [21],90
same,"Plant response rating, Foxtail, Giant",[10]; [22],90
same,"Plant response rating, Foxtail, Giant",[10]; [23],90
same,"Plant response rating, Galium",[11]; [22],50
same,"Plant response rating, Galium",[11]; [23],50
same,"Plant response rating, Barnyardgrass",[12]; [22],90
same,"Plant response rating, Barnyardgrass",[12]; [23],90
same,"Plant response rating, Ryegrass, Italian",[13]; [22],30
same,"Plant response rating, Ryegrass, Italian",[13]; [23],80
same,"Plant response rating, Blackgrass",[14]; [22],40
same,"Plant response rating, Blackgrass",[14]; [23],70
same,"Plant response rating, Pigweed",[15]; [22],0
same,"Plant response rating, Pigweed",[15]; [23],20
same,"Plant response rating, Wheat",[16]; [22],30
same,"Plant response rating, Wheat",[16]; [23],70
same,"Plant response rating, Kochia",Kochia (Kochia scoparia) [17]; [22],0
same,"Plant response rating, Kochia",Kochia (Kochia scoparia) [17]; [23],50
same,"Plant response rating, Corn",corn (Zea mays); [22],40
same,"Plant response rating, Corn",corn (Zea mays); [23],70
same,"Plant response rating, Ragweed",[18]; [22],0
same,"Plant response rating, Ragweed",[18]; [23],30
CC(C)Oc1ccc([C@H]2CN(C)C(=O)[C@@H]2C(=O)Nc2ccccc2F)cc1 [Compound 952],pest or weed control at 250 g/ha,"[1]; Echinochloa crus-galli, scale of 0 to 100 where 0 is no effect and 100 is complete control, read-out: Barnyardgrass plant response rating",0%
same,pest or weed control at 250 g/ha,"[2]; Heteranthera limosa, scale of 0 to 100 where 0 is no effect and 100 is complete control, read-out: Ducksalad plant response rating",40%
same,pest or weed control at 250 g/ha,"rice (Oryra sativa); Oryza sativa, scale of 0 to 100 where 0 is no effect and 100 is complete control, read-out: Rice plant response rating",0%
same,pest or weed control at 250 g/ha,"[3]; Cyperus difformis, scale of 0 to 100 where 0 is no effect and 100 is complete control, read-out: Sedge, Umbrella plant response rating",0%
same,pest or weed control at 125 g/ha,"[4]; Setaria faberi, pre-emergence, 240 h, 125 g ai/ha, Preemergence, visual injury rating after approximately 10 d, read-out: Foxtail, Giant plant response rating (0 to 100 scale, 0 is no effect, 100 is complete control)",80%
same,pest or weed control at 500 g/ha,"[4]; Setaria faberi, pre-emergence, 240 h, 500 g ai/ha, preemergence, visual injury rating about 10 d after treatment, 0 to 100 scale (0 no effect, 100 complete control), read-out: Foxtail, Giant plant response rating",90%
same,pest or weed control at 125 g/ha,"[5]; Echinochloa crus-galli, pre-emergence, 240 h, 125 g ai/ha, Preemergence, visual injury rating after approximately 10 d, read-out: Barnyardgrass plant response rating (0 to 100 scale, 0 is no effect, 100 is complete control)",50%
same,pest or weed control at 500 g/ha,"[5]; Echinochloa crus-galli, pre-emergence, 240 h, 500 g ai/ha, preemergence, visual injury rating about 10 d after treatment, 0 to 100 scale (0 no effect, 100 complete control), read-out: Barnyardgrass plant response rating",90%
same,pest or weed control at 125 g/ha,"[6]; Lolium multiflorum, pre-emergence, 240 h, 125 g ai/ha, Preemergence, visual injury rating after approximately 10 d, read-out: Ryegrass, Italian plant response rating (0 to 100 scale, 0 is no effect, 100 is complete control)",0%
same,pest or weed control at 500 g/ha,"[6]; Lolium multiflorum, pre-emergence, 240 h, 500 g ai/ha, preemergence, visual injury rating about 10 d after treatment, 0 to 100 scale (0 no effect, 100 complete control), read-out: Ryegrass, Italian plant response rating",0%
same,pest or weed control at 125 g/ha,"[7]; Amaranthus retroflexus, pre-emergence, 240 h, 125 g ai/ha, Preemergence, visual injury rating after approximately 10 d, read-out: Pigweed plant response rating (0 to 100 scale, 0 is no effect, 100 is complete control)",0%
same,pest or weed control at 500 g/ha,"[7]; Amaranthus retroflexus, pre-emergence, 240 h, 500 g ai/ha, preemergence, visual injury rating about 10 d after treatment, 0 to 100 scale (0 no effect, 100 complete control), read-out: Pigweed plant response rating",0%
same,pest or weed control at 125 g/ha,"Kochia (Kochia scoparia) [8]; Bassia scoparia, pre-emergence, 240 h, 125 g ai/ha, Preemergence, visual injury rating after approximately 10 d, read-out: Kochia plant response rating (0 to 100 scale, 0 is no effect, 100 is complete control)",30%
same,pest or weed control at 500 g/ha,"Kochia (Kochia scoparia) [8]; Bassia scoparia, pre-emergence, 240 h, 500 g ai/ha, preemergence, visual injury rating about 10 d after treatment, 0 to 100 scale (0 no effect, 100 complete control), read-out: Kochia plant response rating",30%
same,pest or weed control at 125 g/ha,"[9]; Ambrosia artemisiifolia, pre-emergence, 240 h, 125 g ai/ha, Preemergence, visual injury rating after approximately 10 d, read-out: Ragweed plant response rating (0 to 100 scale, 0 is no effect, 100 is complete control)",0%
same,pest or weed control at 500 g/ha,"[9]; Ambrosia artemisiifolia, pre-emergence, 240 h, 500 g ai/ha, preemergence, visual injury rating about 10 d after treatment, 0 to 100 scale (0 no effect, 100 complete control), read-out: Ragweed plant response rating",0%
same,pest or weed control at 125 g/ha,"[10]; Setaria faberi, post-emergence, 240 h, 125 g ai/ha, Postemergence, visual injury after approximately 10 d, 0 to 100 scale where 0 is no effect and 100 is complete control, read-out: Plant response rating, Foxtail, Giant",50%
same,pest or weed control at 125 g/ha,"[11]; Galium, post-emergence, 240 h, 125 g ai/ha, Postemergence, visual injury after approximately 10 d, 0 to 100 scale where 0 is no effect and 100 is complete control, read-out: Plant response rating, Galium",0%
same,pest or weed control at 125 g/ha,"[12]; Echinochloa crus-galli, post-emergence, 240 h, 125 g ai/ha, Postemergence, visual injury after approximately 10 d, 0 to 100 scale where 0 is no effect and 100 is complete control, read-out: Plant response rating, Barnyardgrass",60%
same,pest or weed control at 125 g/ha,"[13]; Lolium multiflorum, post-emergence, 240 h, 125 g ai/ha, Postemergence, visual injury after approximately 10 d, 0 to 100 scale where 0 is no effect and 100 is complete control, read-out: Plant response rating, Ryegrass, Italian",0%
same,pest or weed control at 125 g/ha,"[14]; Alopecurus myosuroides, post-emergence, 240 h, 125 g ai/ha, Postemergence, visual injury after approximately 10 d, 0 to 100 scale where 0 is no effect and 100 is complete control, read-out: Plant response rating, Blackgrass",0%
same,pest or weed control at 125 g/ha,"[15]; Amaranthus retroflexus, post-emergence, 240 h, 125 g ai/ha, Postemergence, visual injury after approximately 10 d, 0 to 100 scale where 0 is no effect and 100 is complete control, read-out: Plant response rating, Pigweed",0%
same,plant injury at 125 g/ha,"[16]; Triticum aestivum, post-emergence, 240 h, 125 g ai/ha, Postemergence, visual injury after approximately 10 d, 0 to 100 scale where 0 is no effect and 100 is complete control, read-out: Plant response rating, Wheat",0%
same,pest or weed control at 125 g/ha,"Kochia (Kochia scoparia) [17]; Bassia scoparia, post-emergence, 240 h, 125 g ai/ha, Postemergence, visual injury after approximately 10 d, 0 to 100 scale where 0 is no effect and 100 is complete control, read-out: Plant response rating, Kochia",0%
same,"Corn plant response rating (crop injury, 0 = no effect, 100 = complete kill) at 125 g/ha","corn (Zea mays); Zea mays, post-emergence, 240 h, 125 g ai/ha, Postemergence, visual injury after approximately 10 d, 0 to 100 scale where 0 is no effect and 100 is complete control",0%
same,pest or weed control at 125 g/ha,"[18]; Ambrosia artemisiifolia, post-emergence, 240 h, 125 g ai/ha, Postemergence, visual injury after approximately 10 d, 0 to 100 scale where 0 is no effect and 100 is complete control, read-out: Plant response rating, Ragweed",0%
